Experimental data taken from PMC5477544, “Structural and mechanistic basis of differentiated inhibitors of the acute pancreatitis target kynurenine-3-monooxygenase” (Nature Communications, 2017).
pIC50: −log10 of the molar value. Where two headings read alike, the source gives them in different places.

Legend:
Type in all cases: biochemical
[1] = biological target: T1, human KMO (Homo sapiens, UniProt O15229); assay: Rapidfire mass spectrometry IC50 assay, isolated human KMO
T1 construct: full-length human KMO was cloned as an N-terminal GST fusion; GST (N); made in house; host or cells: Sf9 insect cells, used as a membrane fraction
T1 sequence (O15229 whole entry, the tested form may be a part): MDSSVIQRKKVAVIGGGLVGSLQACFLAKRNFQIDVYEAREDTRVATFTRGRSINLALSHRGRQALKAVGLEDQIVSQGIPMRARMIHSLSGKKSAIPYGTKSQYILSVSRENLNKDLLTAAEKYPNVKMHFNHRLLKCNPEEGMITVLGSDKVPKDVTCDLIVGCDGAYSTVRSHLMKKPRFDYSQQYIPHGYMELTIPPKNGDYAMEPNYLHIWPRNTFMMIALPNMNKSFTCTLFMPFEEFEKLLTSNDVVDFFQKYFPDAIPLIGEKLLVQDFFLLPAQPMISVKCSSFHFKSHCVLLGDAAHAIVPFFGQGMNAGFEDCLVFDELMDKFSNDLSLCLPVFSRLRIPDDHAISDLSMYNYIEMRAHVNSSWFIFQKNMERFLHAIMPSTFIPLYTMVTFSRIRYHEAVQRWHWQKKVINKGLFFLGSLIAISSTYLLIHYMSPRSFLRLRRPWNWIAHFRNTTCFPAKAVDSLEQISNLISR
Experimental: For the expression and isolation of human KMO membranes, full-length human KMO was cloned as an N-terminal GST fusion, expressed in Sf9 cells and isolated as a membrane fraction as described in Lowe et al.[12]
(§1) Inhibitor IC50 values against isolated human KMO were determined using a Rapidfire mass spectrometry assay as described in Lowe et al.[12] utilizing the Sf9 cell expressed human KMO described above. The inhibitor IC50 values against Pf-KMO were determined using an analogous Rapidfire mass spectrometry assay, utilizing the purified protein described above.

[2] = biological target: T2, Pf KMO (Pseudomonas fluorescens, UniProt Q84HF5, C252S/C461S); assay: Rapidfire mass spectrometry IC50 assay, Pf-KMO; conditions: from inhibition curves of Fig. 3b; [Pf-KMO]=1 nM, [L-Kyn]=10 μM, [NADPH]=200 μM
T2 construct: Success was made possible by the use of a full-length P. fluorescens orthologue; made in house; host or cells: Escherichia coli BL21 (DE3)
T2 sequence (Q84HF5 whole entry C252S/C461S): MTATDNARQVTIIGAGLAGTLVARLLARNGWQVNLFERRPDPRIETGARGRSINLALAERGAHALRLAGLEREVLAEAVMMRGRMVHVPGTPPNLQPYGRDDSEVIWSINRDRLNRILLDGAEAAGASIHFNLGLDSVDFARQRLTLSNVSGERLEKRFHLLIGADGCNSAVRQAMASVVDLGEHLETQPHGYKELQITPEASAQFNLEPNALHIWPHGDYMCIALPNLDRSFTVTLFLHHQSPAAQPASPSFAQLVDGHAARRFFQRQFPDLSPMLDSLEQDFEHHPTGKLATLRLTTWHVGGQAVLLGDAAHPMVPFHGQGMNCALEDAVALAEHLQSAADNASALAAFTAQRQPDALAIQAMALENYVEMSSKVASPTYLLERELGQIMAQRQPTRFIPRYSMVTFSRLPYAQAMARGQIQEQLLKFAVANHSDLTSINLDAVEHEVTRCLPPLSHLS
Experimental: as §1

[3] = biological target: T1, human KMO; assay: Association kinetics (onset of inhibition timecourses); parameters: steady-state rate Vs, onset of inhibition timecourse: unit not given here; conditions: for kobs, onset of inhibition: 200 μM NADPH, 10 μM L-Kyn; for kobs, onset of inhibition at sub-saturating NADPH: 10 nM GSK775(B2), regeneration system
Experimental: For the association kinetics assays, measurements were performed in a buffer of 50 mM Hepes pH 7.5, 2 mM DTT, 1 mM EDTA, 0.1 mM Chaps. Reactions were performed at ambient temperature, by addition of human KMO enzyme to a mixture of L-Kyn and NADPH containing the test inhibitor. […] Aliquots of the mixtures were quenched into 0.5% TFA in water. L-Kyn and 3-HK levels in the quenched samples were measured using the Rapidfire mass spectrometry method described in Lowe et al.[12] Calibration curves for L-Kyn and 3-HK were used to correct for the lower detection response for 3-HK. Per cent turnover and resulting concentration of 3-HK were calculated for each time point in Excel. kobs values for onset of inhibition were obtained by fitting individual timecourses to equation 1 where t=time, vs=steady-state rate, vi=initial rate and c=background[43]. vi was fixed at the uninhibited rate obtained from the slope of the timecourse in the absence of inhibitor.

[4] = biological target: T1, human KMO; assay: Dissociation kinetics (recovery of activity timecourses) and full kinetic analysis; parameters: steady-state rate Vs after equilibration of inhibitor binding, dissociation timecourse: unit not given here
Experimental: The dissociation kinetics measurements were performed in a buffer of 50 mM Hepes pH 7.5, 2 mM DTT, 1 mM EDTA, 0.1 mM Chaps. […] Aliquots of the reaction mixtures were quenched into 0.5% TFA in water. 3-HK levels in the quenched samples were measured using the Rapidfire mass spectrometry assay described in Lowe et al.[12] A calibration curve for 3-HK was used to convert the data to concentration of 3-HK at each time point. kobs values for recovery of activity were obtained by fitting individual timecourses to equation 1 with vi (initial rate) set to zero.
In this analysis, inhibitor kon was fixed at the value obtained in the association kinetic studies, and kcat and inhibitor koff were the two variable parameters.

[5] = biological target: T1, human KMO; assay: Hydrogen peroxide formation, HRP/Amplex Red assay, human KMO
Experimental: (§2) Measurements were performed in a buffer of 50 mM Hepes pH 7.5, 0.1 mM Chaps. A two-fold dilution series of test inhibitor and control compounds was prepared from DMSO solutions using the Hewlett-Packard D300 digital dispenser in a 384-well plate and normalized to a final DMSO concentration of 1% in the assay. 10 μl of 80 μg ml^−1 human KMO or 40 nM Pf-KMO were added. After 15 min incubation, 10 μl of a substrate/detection mix (2 U ml^−1 HRP, 20 μM Amplex Red, 40 μM NADPH) were added and the plate was read kinetically on a Tecan M1000 fluorescent plate reader with excitation wavelength 530 nm and emission wavelength 580 nm. A calibration curve comprising a two-fold dilution series of resorufin from 20 μM top concentration was included on the plate, and used to convert assay data to concentration of resorufin formed. Initial rate (μM min^−1) was extracted by linear fitting of the early region of each timecourse. Dose responses were fitted to a four parameter logistic expression where appropriate.

[6] = biological target: T2, Pf KMO; assay: Hydrogen peroxide formation, HRP/Amplex Red assay, Pf-KMO
Experimental: as §2

[7] = biological target: T2, Pf KMO; assay: L-Kyn KM determination, Rapidfire mass spectrometry, Pf-KMO
Experimental: (§3) The KM of kynurenine for human KMO and for Pf KMO were measured as described in Lowe et al.[12]. The KM of NADPH for human KMO was measured using a regeneration system as described in Lowe et al.[12], with a kynurenine concentration of 10 μM.

[8] = biological target: T1, human KMO; assay: NADPH KM determination with regeneration system, human KMO; conditions: 10 M Kynurenine (so in the source)
Experimental: as §3

[9] = from inhibition curves of Fig. 3b, read-out: IC50 Human KMO

SMILES: C[C@@H](Oc1cc2onc(CCC(=O)O)c2cc1Cl)c1ccccn1 [GSK065]
- mean slope of inhibition curve ([1]; human enzyme): 1.9

SMILES: Cc1ccc([C@@H](C)Oc2cc3onc(CCC(=O)O)c3cc2Cl)nn1 [GSK366]
- pIC50 [1, 9]: 8.64
- mean slope of inhibition curve ([1]; human enzyme): 1.9
- pIC50 ([1]; human enzyme, mean of n determinations given in text, read-out: IC50 (mean potency, in vitro activity)): 8.70
- pIC50 [2]: 9.15
- kobs, onset of inhibition ([3]; 5 nM inhibitor): 0.031 min⁻¹

SMILES: Cc1cc2oc(=O)n(CCC(=O)O)c2cc1Cl [GSK428]
- pIC50 [1, 9]: 8.00
- Effect of [L-Kyn] on IC50 (mode of inhibition) ([1]; human KMO): linear relationship
- pIC50 [2]: 7.22
- steady-state rate Vs, onset of inhibition timecourse ([3]; 10 nM GSK428(A2), last 5 minutes of timecourse, uninhibited Vi = 0.022): 0.004
- steady-state rate Vs after equilibration of inhibitor binding, dissociation timecourse ([4]; last 5 minutes of timecourse in presence of GSK428(A2)): 0.147
- Generation of hydrogen peroxide [5]: stimulate peroxide (H2O2) production
- Generation of hydrogen peroxide [6]: stimulate peroxide (H2O2) production

SMILES: C[C@@H](Oc1cc2oc(=O)n(CCC(=O)O)c2cc1Cl)c1ccccn1 [GSK775]
- kobs, onset of inhibition at sub-saturating NADPH ([3]; 1 uM NADPH): 0.035 min⁻¹
- kobs, onset of inhibition at sub-saturating NADPH ([3]; 0.3 M NADPH (so in the source)): 0.013 min⁻¹
- kobs, onset of inhibition at sub-saturating NADPH ([3]; 5 M NADPH (so in the source)): 0.069 min⁻¹
- kobs, onset of inhibition ([3]; 10 nM inhibitor): 0.062 min⁻¹
- onset kobs, times slower than for GSK428(A2) ([3]; same concentration conditions): at least 10 times
- dissociation half life of KMO-inhibitor complex ([4]; human KMO): ~2 h

SMILES: O=C(O)CCn1c(=O)oc2cc(OCc3ccccn3)c(Cl)cc21 [GSK891]
- pIC50 [1, 9]: 8.44
- pIC50 [2]: 8.37

SMILES: Nc1ccccc1C(=O)CC(N)C(=O)O [L-Kyn, L-kynurenine]
- kcat ([7]; 200 μM NADPH): 2.3 s⁻¹
- Km ([7]; read-out: L-Kyn KM, 200 μM NADPH): 7 µM

SMILES: NC(=O)C1=CN([C@@H]2O[C@H](COP(=O)(O)OP(=O)(O)OC[C@H]3O[C@@H](n4cnc5c(N)ncnc54)[C@H](OP(=O)(O)O)[C@@H]3O)[C@@H](O)[C@H]2O)C=CC1 [NADPH]
- Km [8]: 1 µM
